Holding throughout (type): functional
In assay [1] the test system is Schistosoma mansoni. Briefly: Antiparasitic activity against Schistosoma mansoni BH cercareae infected Swiss mouse assessed as average number of eggs at 3 stage after 10 days by oogram test.
Assay [2] deals with Schistosoma mansoni. Briefly: Antiparasitic activity against Schistosoma mansoni BH cercareae infected Swiss mouse assessed as average number of eggs at 1 stage after 20 days by oogram test.
Assay [3] deals with Schistosoma mansoni. The experiment in a line: Antiparasitic activity against Schistosoma mansoni BH cercareae infected Swiss mouse assessed as average number of eggs at 2 stage after 20 days by oogram test.
Assay [4] has as its system Schistosoma mansoni. Briefly: Antiparasitic activity against Schistosoma mansoni BH cercareae infected Swiss mouse assessed as average number of eggs at 3 stage after 20 days by oogram test.
Assay [5] relates to Schistosoma mansoni. Briefly: Antiparasitic activity against Schistosoma mansoni BH cercareae infected Swiss mouse assessed as average number of eggs at 1 stage after 10 days by oogram test.
Assay [6] relates to Schistosoma mansoni. Briefly: Antiparasitic activity against Schistosoma mansoni BH cercareae infected Swiss mouse assessed as average number of eggs at 2 stage after 10 days by oogram test.
In assay [7] the test system is Schistosoma mansoni. The experiment in a line: Antiparasitic activity against Schistosoma mansoni BH cercareae infected Swiss mouse assessed as total number of worms after 10 days by mesenteric veins perfusion technique.
In assay [8] the test system is Schistosoma mansoni. Briefly: Antiparasitic activity against Schistosoma mansoni BH cercareae infected Swiss mouse as total numbers of worms after 20 days by mesenteric veins perfusion technique.

`C=C(C)C(=O)OCc1cc2c(cc1[N+](=O)[O-])NC(CNC(C)C)CC2` (stereo unspecified) [OXAMNIQUINE ACRYLAMIDE]: the Activity turned out to be 0.22 in assay [1]; 0 in assay [2]; 0.09 in assay [3]; 0.27 in assay [4]; 0 in assay [5]; 0.11 in assay [6]. Further, the Activity is listed as 48 in assay [7] and 39 in assay [8].

As for `CC(C)NCC1CCc2cc(CO)c([N+](=O)[O-])cc2N1` (stereo unspecified) [OXAMNIQUINE], the Activity in assay [1], in assay [2], in assay [3], in assay [4], in assay [5] and in assay [6] was 0 in each case. Also, the Activity in assay [7] was 3; in assay [8], 13.

Source of the values: ChEMBL document CHEMBL1146319, “Design, synthesis, and in vivo evaluation of oxamniquine methacrylate and acrylamide prodrugs” (2007).
